Our source for the IC50, inhibition and Activity values is ChEMBL document CHEMBL4396933, “Design, synthesis and biological evaluation of 3,5-dimethylisoxazole and pyridone derivatives as BRD4 inhibitors” (Bioorg Med Chem Lett, 2019).

The subject of series [1] is DU-145. The series is described as follows: Antiproliferative activity against human DU145 cells. The series is classed as functional, cell-based.
Series [2] relates to CAPAN-1. The series is described as follows: Antiproliferative activity against human Capan1 cells. In kind it is functional, cell-based.
Series [3] concerns the target T1, Bromodomain-containing protein 4 (Homo sapiens, UniProt O60885). As to the kind of experiment: Inhibition of BRD4 bromodomain 1/2 (unknown origin) by alphascreen assay.
The test system of series [4] is MV4-11. As to the kind of experiment: Antiproliferative activity against human MV4-11 cells assessed as reduction in cell viability incubated for 72 hrs by CellTiter-Glo luminescent cell viability assay. The series is classed as functional, cell-based. The following applies: MV4-11, 72 h. A general note: Cellular ATP, detected with luciferase, serves as a proxy for viable cell number.

Series [5] has as its system BT-474. The series is described as follows: Antiproliferative activity against human BT474 cells. In kind it is functional, cell-based.
In series [6] the test system is SW480. The series is described as follows: Antiproliferative activity against human SW480 cells. The series is classed as functional, cell-based.
The subject of series [7] is HCT-116. As to the kind of experiment: Antiproliferative activity against human HCT116 cells. In kind it is functional, cell-based.
The target in series [8] is T1, Bromodomain-containing protein 4. As to the kind of experiment: Inhibition of BRD4 (unknown origin) at 1 uM relative to control.
Series [9] concerns MV4-11. As to the kind of experiment: Induction of cell cycle arrest in human MV4-11 cells assessed as increase in accumulation at G0/G1 phase incubated for 48 hrs by PI staining based flow cytometric analysis. In kind it is functional. For orientation: Flow cytometry measures light scatter and fluorescence of single cells or particles in a stream.
Series [10] deals with L02. The series is described as follows: Cytotoxicity against human LO2 cells at 0.5 to 40 uM incubated for 72 hrs by MTT assay. The following applies: l02, 72 h. The series is classed as cell-based. Background: Formazan colour is commonly taken as a measure of viable cells.
The target of series [11] is T1, Bromodomain-containing protein 4. As to the kind of experiment: Inhibition of BRD4 in human MV4-11 cells assessed as downregulation of c-Myc protein expression incubated for 48 hrs by Western blot method. The series is classed as cell-based.

Where only a bound is given, the exact number is not on record here.

In general, IC50 refers to the midpoint of a concentration-inhibition curve. In general, inhibition refers to the drop in the measured response relative to a control, in per cent.

On to `CNc1cc(-c2ccc3cnn(Cc4cc(OC)cc(OC)c4)c3c2)cn(C)c1=O`, for which the half-inhibitory concentration (IC50) in series [1] is 2600 nM; in series [2], 3800 nM; in series [3], 550 nM; in series [4] it was 190 to 200 nM; in series [5], 8600 nM; in series [6], 7400 nM. In series [7], the concentration for half-maximal inhibition (IC50) is 2900 nM.

For the compound `Cc1noc(C)c1-c1ccc2c(c1)c(Nc1ccc(F)cc1)nn2C1CCCCO1` (centres undefined), in series [8], the inhibition is < 20%.

Take `COc1ccc(CN2CC(c3ccc(O)cc3)c3cnc(-c4c(C)noc4C)nc32)cc1` (centres undefined): in [8], the inhibition was < 20%.

Regarding `COc1ccc(C)c(C2CN(Cc3ccc(F)cc3)c3nc(-c4c(C)noc4C)ncc32)c1` (centres undefined), the inhibition in series [8] was < 20%.

In the case of `CNc1cc(-c2ccc3cnn(Cc4ccc(F)c(F)c4)c3c2)cn(C)c1=O`, the Activity entry in [9] was “Dose-dependent effect”; in series [10], “Non-Toxic”. For the same compound, the half-maximal inhibitory concentration (IC50) was determined as 4800 nM in series [1]; 3700 nM in series [2]; 860 nM in series [3]; 320 nM in [4]; 8800 nM in [5]; 8400 nM in series [6]. Also, in series [7], the midpoint of inhibition, the IC50, lay at 3000 nM. Also, the inhibition result in series [11] was “Dose-dependent effect”.

For `Cc1noc(C)c1-c1ccc2c(Nc3ccc(F)cc3)nn(C3CCCCO3)c2c1` (centres undefined), the 50% inhibitory concentration (IC50) in [4] amounted to 9900 nM. In addition, the inhibition in series [8] was < 20%.

For `CNc1cc(-c2ccc3cnn(Cc4ccc(C)cc4)c3c2)cn(C)c1=O`, the results for the IC50 in series [3] and in [4] were 1600 nM and 3280 nM, respectively.

As for `CNc1cc(-c2ccc3cnn(Cc4ccc(OC)c(F)c4)c3c2)cn(C)c1=O`, the half-maximal inhibitory concentration (IC50) was 1400 nM in series [3] and 4980 nM in series [4].

Turning to `CNc1cc(-c2ccc3cnn(Cc4ccc(F)c([N+](=O)[O-])c4)c3c2)cn(C)c1=O`, the IC50 in series [1] was 3400 nM; in [2], 4000 nM; in series [3] it was 800 nM; in [4], 130 nM; in series [5], 6500 nM; in [6], 10100 nM. In addition, in series [7], the half-inhibitory concentration (IC50) was 2600 nM.

On to `Cc1sc2c(c1C)C(c1ccc(Cl)cc1)=N[C@@H](CC(=O)OC(C)(C)C)c1nnc(C)n1-2`, for which the 50% inhibitory concentration (IC50) was 200 nM in series [1]; 800 nM in [2]; 60 to 90 nM in [4]; 1700 nM in series [5]; 14100 nM in series [6]; 400 nM in series [7].

As for `CNc1cc(-c2ccc3cnn(Cc4ccc(C(F)(F)F)cc4)c3c2)cn(C)c1=O`, the IC50 in [3] was 2400 nM; in series [4], 4370 nM.

For the compound `Cc1noc(C)c1-c1ccc2c(Nc3ccc(Cl)cc3)nn(C3CCCCO3)c2c1` (centres undefined), in [4], the IC50 worked out at 7400 nM. The inhibition in series [8] is < 20%.

As for `COc1ccc(Nc2nn(Cc3ccc(C)cc3)c3cc(-c4c(C)noc4C)ccc23)cc1`, the half-maximal inhibitory concentration (IC50) in series [4] is 11900 nM. In addition, the inhibition in series [8] was < 20%.

With `CCOC(=O)Cn1ncc2ccc(-c3cc(NC)c(=O)n(C)c3)cc21`, the results for the IC50 in series [3] and in series [4] were 1900 nM and 8770 nM, respectively.

Take `COc1cc(F)ccc1Nc1nn(C2CCCCO2)c2ccc(-c3c(C)noc3C)cc12` (centres undefined): in series [4], the 50% inhibitory concentration (IC50) turned out to be 17500 nM. Moreover, in series [8], the inhibition is < 20%.

With `Cc1ccc(Cn2nc(Nc3ccc(C(F)(F)F)cc3)c3ccc(-c4c(C)noc4C)cc32)cc1`, the inhibition in [8] is < 20%.

In the case of `CNc1cc(-c2ccc3cnn(CC4CC4)c3c2)cn(C)c1=O`, the half-maximal inhibitory concentration (IC50) was determined as 1960 nM in [3] and 3450 nM in [4].

Regarding `CCNc1cc(-c2ccc3cnn(Cc4ccc(F)cc4)c3c2)cn(C)c1=O`, the IC50 in series [3] amounted to 2250 nM; in series [4] it was 5650 nM.

Take `COc1cc2cnn(Cc3ccc(F)cc3)c2cc1-c1c(C)noc1C`: in series [4], the half-inhibitory concentration (IC50) came out at 1900 nM. In series [8], this compound returned an inhibition of 45%.

In the case of `CNc1cc(-c2ccc3cnn(Cc4ccc(OC)cc4)c3c2)cn(C)c1=O`, the 50% inhibitory concentration (IC50) in series [3] came out at 1600 nM; in series [4], 2700 nM.

For `COc1ccc(Cn2nc(Nc3cccc(C(C)C)c3)c3ccc(-c4c(C)noc4C)cc32)cc1`, the 50% inhibitory concentration (IC50) in [4] is 8100 nM. Further, in [8], the inhibition is < 20%.

With `CNc1cc(-c2ccc3cnn(CC4CCCCC4)c3c2)cn(C)c1=O`, the figures for the IC50 in series [3] and in series [4] were 1810 nM and 2690 nM, respectively.

In the case of `COc1cc(Nc2nn(C3CCCCO3)c3cc(-c4c(C)noc4C)ccc23)ccc1F` (centres undefined), the IC50 in series [4] is 9300 nM. Also, the inhibition in [8] is < 20%.

Consider `Cc1noc(C)c1-c1ccc(-n2ncc3ccc(-c4c(C)noc4C)cc32)c(Cl)c1`, for which, in [4], the 50% inhibitory concentration (IC50) is 2800 nM. Further, the inhibition in [8] was 33%.

As for `COc1ccc(Cn2nc(Nc3ccc(F)cc3)c3ccc(-c4c(C)noc4C)cc32)cc1`, in series [4], the IC50 came out at 9100 nM. Also, the inhibition in [8] is < 20%.

`COc1cc(F)ccc1Nc1nn(C2CCCCO2)c2cc(-c3c(C)noc3C)ccc12` (centres undefined): in series [4], the concentration for half-maximal inhibition (IC50) is 8500 nM. In [8], the inhibition was < 20%.

In the case of `CNc1cc(-c2ccc3cnn(Cc4ccc(F)cc4)c3c2)cn(C)c1=O`, the IC50 in [3] was 1400 nM; in series [4], 2390 nM.

Turning to `Cc1ccc(Cn2nc(Nc3ccc(C#N)cc3)c3ccc(-c4c(C)noc4C)cc32)cc1`, the IC50 in series [4] came to 5800 nM. Moreover, the inhibition in series [8] is < 20%.

`Cc1ccc(Cn2nc(Nc3ccc(F)cc3)c3ccc(-c4c(C)noc4C)cc32)cc1`: the inhibition in series [8] was < 20%.

In the case of `CCNc1cc(-c2ccc3cnn(Cc4cc(OC)cc(OC)c4)c3c2)cn(C)c1=O`, the 50% inhibitory concentration (IC50) in series [3] was determined as 1810 nM; in [4] it was 2590 nM.

With `Cc1noc(C)c1-c1ccc2c(Nc3ccc(F)cc3)n[nH]c2c1`, the concentration for half-maximal inhibition (IC50) in series [4] was found to be 7800 nM. Further, in series [8], the inhibition is < 20%.
